From PubChem BioAssay (NCI) come the findings set out here.

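Five compound concentrations were applied to cells in 96-well plates for 48 hours; endpoints were derived by simple linear interpolation of the resulting dose-response curve. TGI: total growth inhibition.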 Where only a bound is given, the exact number is not on record here.

Test systems include SK-MEL-2 melanoma; SR leukemia; MDA-MB-435; MOLT-4 leukemia; SK-MEL-28 melanoma; NCI-H522 lung; PC-3 prostate; TK-10 renal; HOP-92 NSCLC; IGROV1 ovarian; NCI/ADR-RES ovarian; LOX IMVI melanoma; CCRF-CEM leukemia; DU-145 prostate; KM12 colon; HCC-2998 colon.
Holding throughout (assay): inhibition of tumour cell growth, NCI panel, 48 h

With `O=C1NC(Cc2ccc(O)cc2)C(=O)NC1Cc1ccc(O)cc1` (centres undefined), the TGI in the experiment on SK-MEL-2 melanoma, in the experiment with SR leukemia, in the experiment on MDA-MB-435, with MOLT-4 leukemia, with SK-MEL-28 melanoma and in the experiment with NCI-H522 lung was more than 100 µM throughout. Further, the TGI in the experiment with PC-3 prostate, with TK-10 renal, in the experiment with HOP-92 NSCLC, in the experiment on IGROV1 ovarian, in the experiment with NCI/ADR-RES ovarian and in the experiment on LOX IMVI melanoma was more than 100 µM each time. Moreover, the TGI with CCRF-CEM leukemia, in the experiment on DU-145 prostate and with KM12 colon was more than 100 µM in each case.

Turning to `COc1cc(Oc2nc3cc(F)c(F)cc3nc2-c2ccccc2)cc(OC)c1OC`, the TGI with SK-MEL-2 melanoma, in the experiment on SR leukemia, in the experiment with MDA-MB-435, with MOLT-4 leukemia, in the experiment with SK-MEL-28 melanoma and in the experiment with NCI-H522 lung was more than 100 µM throughout. Also, the TGI in the experiment on PC-3 prostate, with TK-10 renal, in the experiment with HOP-92 NSCLC, in the experiment on IGROV1 ovarian, in the experiment with NCI/ADR-RES ovarian and with LOX IMVI melanoma was more than 100 µM in each case. For the same molecule, the TGI in the experiment with CCRF-CEM leukemia, in the experiment on DU-145 prostate and in the experiment with KM12 colon was more than 100 µM in each case.

As to `CCOC(=O)CCC(C(=O)OCC)n1nnc2cc(Nc3c(C)[n+]([O-])c4cc(F)c(OCC)cc4[n+]3[O-])ccc21` (centres undefined), the TGI in the experiment with SK-MEL-2 melanoma, in the experiment with SR leukemia, in the experiment with MDA-MB-435, in the experiment on MOLT-4 leukemia, in the experiment on NCI-H522 lung and in the experiment with PC-3 prostate was more than 100 µM in each case. The TGI in the experiment on TK-10 renal was more than 100 µM; with HOP-92 NSCLC it was 88.8 µM; in the experiment with IGROV1 ovarian, more than 100 µM; in the experiment on NCI/ADR-RES ovarian it was more than 100 µM; in the experiment on LOX IMVI melanoma, more than 100 µM; in the experiment with CCRF-CEM leukemia, more than 100 µM. Also, the TGI in the experiment with DU-145 prostate and with KM12 colon was more than 100 µM in each case.

For `COC(NC(=O)Nc1ccccc1C)(C(F)(F)F)C(F)(F)F`, the TGI in the experiment on SR leukemia, with MDA-MB-435, in the experiment on MOLT-4 leukemia, in the experiment on SK-MEL-28 melanoma, in the experiment with HCC-2998 colon and with NCI-H522 lung was more than 100 µM throughout. The TGI in the experiment with PC-3 prostate, in the experiment on TK-10 renal, in the experiment on HOP-92 NSCLC, in the experiment with IGROV1 ovarian, in the experiment on NCI/ADR-RES ovarian and in the experiment with LOX IMVI melanoma was more than 100 µM in each case. Moreover, the TGI with CCRF-CEM leukemia, in the experiment on DU-145 prostate and in the experiment with KM12 colon was more than 100 µM throughout.

Take `O=C(O)c1ccccc1C1c2ccccc2Oc2ccccc21`: the TGI with SK-MEL-2 melanoma is 86.5 µM; in the experiment with SR leukemia, more than 100 µM; with MDA-MB-435, more than 100 µM; in the experiment with MOLT-4 leukemia it was more than 100 µM; in the experiment with SK-MEL-28 melanoma, more than 100 µM; in the experiment with NCI-H522 lung, more than 100 µM. For the same molecule, the TGI is more than 100 µM with PC-3 prostate; more than 100 µM in the experiment on TK-10 renal; 77.5 µM with HOP-92 NSCLC; more than 100 µM in the experiment on IGROV1 ovarian; more than 100 µM with NCI/ADR-RES ovarian; more than 100 µM with LOX IMVI melanoma. The TGI in the experiment with CCRF-CEM leukemia, in the experiment on DU-145 prostate and in the experiment on KM12 colon was more than 100 µM throughout.

For `CC1(C)C=C(/C=N/Nc2ccccc2)C(C#N)=C(O)C1(C#N)C#N`, the TGI in the experiment with SR leukemia, in the experiment on MDA-MB-435, in the experiment with MOLT-4 leukemia, with SK-MEL-28 melanoma, with HCC-2998 colon and in the experiment on NCI-H522 lung was more than 100 µM throughout. Moreover, the TGI with PC-3 prostate is more than 100 µM; in the experiment on TK-10 renal, more than 100 µM; in the experiment on HOP-92 NSCLC, 99.6 µM; with IGROV1 ovarian, more than 100 µM; in the experiment on NCI/ADR-RES ovarian it was more than 100 µM; in the experiment on LOX IMVI melanoma, more than 100 µM. The TGI in the experiment with CCRF-CEM leukemia, with DU-145 prostate and with KM12 colon was more than 100 µM throughout.

Take `CCCCCCCCOc1ccc(/C=C/C2=[N+](CCO)CCO2)cc1`: the TGI was 7.26 µM with SK-MEL-2 melanoma; 4.66 µM with SR leukemia; 14.5 µM in the experiment with MDA-MB-435; 9.27 µM in the experiment on MOLT-4 leukemia; 9.12 µM in the experiment with SK-MEL-28 melanoma; 11.9 µM in the experiment on HCC-2998 colon. Also, the TGI worked out at 6.25 µM in the experiment with NCI-H522 lung; 10.3 µM in the experiment on PC-3 prostate; 17.3 µM with TK-10 renal; 6.51 µM with HOP-92 NSCLC; 13.8 µM in the experiment with IGROV1 ovarian; 29.4 µM in the experiment with NCI/ADR-RES ovarian. The TGI turned out to be 6.43 µM with CCRF-CEM leukemia, 16.4 µM in the experiment with DU-145 prostate and 11 µM in the experiment with KM12 colon.

For the molecule `COc1cc2nc(-c3cccs3)nc(Nc3cccc(Cl)c3)c2cc1OC`, the TGI with SK-MEL-2 melanoma, in the experiment with SR leukemia, in the experiment with MDA-MB-435, in the experiment on MOLT-4 leukemia, in the experiment on SK-MEL-28 melanoma and in the experiment with NCI-H522 lung was more than 100 µM throughout. Also, the TGI is 56.8 µM in the experiment with PC-3 prostate; 25.3 µM in the experiment with TK-10 renal; more than 100 µM in the experiment on HOP-92 NSCLC; more than 100 µM in the experiment with IGROV1 ovarian; more than 100 µM in the experiment on NCI/ADR-RES ovarian; more than 100 µM with LOX IMVI melanoma. Further, the TGI with CCRF-CEM leukemia, with DU-145 prostate and in the experiment with KM12 colon was more than 100 µM throughout.

For `O=C(OCc1ccccc1)N1CCNCCNCCN(C(=O)OCc2ccccc2)CCNCC1`, the TGI with SK-MEL-2 melanoma came out at 32.9 µM; in the experiment on SR leukemia, 34.2 µM; in the experiment on MDA-MB-435, 29.6 µM; in the experiment with MOLT-4 leukemia it was 38.9 µM; in the experiment on SK-MEL-28 melanoma it was 29.1 µM; in the experiment with NCI-H522 lung, 31.4 µM. The TGI in the experiment on PC-3 prostate was more than 100 µM; in the experiment on TK-10 renal it was 67.2 µM; with HOP-92 NSCLC, 46.7 µM; in the experiment with IGROV1 ovarian, 91.3 µM; in the experiment on NCI/ADR-RES ovarian, more than 100 µM; with LOX IMVI melanoma it was 30.8 µM. Besides, the figures for the TGI in the experiment with CCRF-CEM leukemia, with DU-145 prostate and with KM12 colon were 65.9 µM, more than 100 µM and 70 µM, respectively.
